Source: patent EP0531640B1, “Antibiotic LL-E19020 Gamma” (F. HOFFMANN-LA ROCHE AG, priority 1991, dated 1993)
Values after ≈ are worked out from the molar mass of the structure shown.

Tests used:
[1] = test system: Staphylococcus haemolyticus AVAH 88-1; assay: MIC by agar dilution; format: cell-based; conditions: AVAH881, Mueller-Hinton agar, 5% sheep blood, 18 hours, read-out: MINIMAL INHIBITORY CONCENTRATION
Method: (§1) The in vitro antibacterial activity of LL-E19020 Gamma is determined against a spectrum of gram positive and gram negative bacteria by a standard agar dilution method. Mueller-Hinton agar containing 5% sheep blood and two-fold decreasing concentrations of LL-E19020 Gamma is poured into petri dishes. The agar surfaces are inoculated with 1 to 5X10^4 colony forming units of bacteria by means of the Steers replicating device. The lowest concentration of antibiotic that inhibits growth of a bacterial strain after 18 hours incubation is recorded as the minimal inhibitory concentration for that strain.
(§2) • 1. Serial two-flow dilutions of drug are prepared in Mueller-Hinton broth in a range of 2560 µg/ml-0.15 µg/ml plus a solvent control. • 2. Two milliliters of drug dilution (10X) are added to sterile screw cap bottles to which 18 ml of Mueller-Hinton agar containing 5.6% defibrinated sheep blood is added. Final drug concentration ranges 256 µg/ml-0.015 µg/ml in agar containing 5% sheep blood. • 3. A few isolated colonies of each test organism are inoculated into 5 ml trypticase soy broth or brain heart infusion broth. The cultures are shaken at 35 °C. for 5 hours. • 4. Each culture is diluted 1:50 (10^-1.7) in Mueller-Hinton broth and applied to agar plates using a Steers replicator. Control plates should be seeded last to ensure that viable organisms are present throughout the procedure. Inoculated agar plates are allowed to stand undisturbed until the inoculum spots are completely absorbed. • 5. The plates are inverted and incubated at 35 °C. for 18 hours with CO2. • 6. The minimum inhibitory concentration (MIC) is taken as the lowest concentration of antimicrobial agent at which complete inhibition of antimicrobial agent at which complete inhibition occurs. A very fine, barely visible haze or a single colony is disregarded.

[2] = test system: Enterococcus spp. ARUM 87-41; assay: MIC by agar dilution; format: cell-based; conditions: Mueller-Hinton agar, 5% sheep blood, 18 hours, read-out: MINIMAL INHIBITORY CONCENTRATION
Method: as §1, §2

[3] = test system: Enterococcus spp. CMC 83-120; assay: MIC by agar dilution; format: cell-based; conditions: Mueller-Hinton agar, 5% sheep blood, 18 hours, read-out: MINIMAL INHIBITORY CONCENTRATION
Method: as §1, §2

[4] = test system: Staphylococcus aureus ATCC 29213; assay: MIC by agar dilution; format: cell-based; conditions: ATCC29213, Mueller-Hinton agar, 5% sheep blood, 18 hours, read-out: MINIMAL INHIBITORY CONCENTRATION
Method: as §1, §2

[5] = test system: Streptococcus pyogenes C203 (MP); assay: MIC by agar dilution; format: cell-based; conditions: Mueller-Hinton agar, 5% sheep blood, 18 hours, read-out: MINIMAL INHIBITORY CONCENTRATION
Method: as §1, §2

[6] = test system: Staphylococcus aureus CMC 83-131; assay: MIC by agar dilution; format: cell-based; conditions: CMC83131, Mueller-Hinton agar, 5% sheep blood, 18 hours, read-out: MINIMAL INHIBITORY CONCENTRATION
Method: as §1, §2

[7] = test system: Streptococcus pyogenes AMCH 88-86; assay: MIC by agar dilution; format: cell-based; conditions: AMCH8886, Mueller-Hinton agar, 5% sheep blood, 18 hours, read-out: MINIMAL INHIBITORY CONCENTRATION
Method: as §1, §2

[8] = test system: Enterococcus spp. VGH 84-69; assay: MIC by agar dilution; format: cell-based; conditions: Mueller-Hinton agar, 5% sheep blood, 18 hours, read-out: MINIMAL INHIBITORY CONCENTRATION
Method: as §1, §2

[9] = test system: Enterococcus spp. WRVA 88-33; assay: MIC by agar dilution; format: cell-based; conditions: Mueller-Hinton agar, 5% sheep blood, 18 hours, read-out: MINIMAL INHIBITORY CONCENTRATION
Method: as §1, §2

[10] = test system: Pseudomonas aeruginosa 12-4-4 (MP); assay: MIC by agar dilution; format: cell-based; conditions: Mueller-Hinton agar, 5% sheep blood, 18 hours, read-out: MINIMAL INHIBITORY CONCENTRATION
Method: as §1, §2

[11] = test system: Staphylococcus aureus ROSE (MP); assay: MIC by agar dilution; format: cell-based; conditions: Mueller-Hinton agar, 5% sheep blood, 18 hours, read-out: MINIMAL INHIBITORY CONCENTRATION
Method: as §1, §2

[12] = test system: Enterococcus spp. CHBM 88-60; assay: MIC by agar dilution; format: cell-based; conditions: Mueller-Hinton agar, 5% sheep blood, 18 hours, read-out: MINIMAL INHIBITORY CONCENTRATION
Method: as §1, §2

[13] = test system: Streptococcus pneumoniae TEX 85-2; assay: MIC by agar dilution; format: cell-based; conditions: TEX852, Mueller-Hinton agar, 5% sheep blood, 18 hours, read-out: MINIMAL INHIBITORY CONCENTRATION
Method: as §1, §2

[14] = test system: Staphylococcus haemolyticus AVAH 88-3; assay: MIC by agar dilution; format: cell-based; conditions: AVAH883, Mueller-Hinton agar, 5% sheep blood, 18 hours, read-out: MINIMAL INHIBITORY CONCENTRATION
Method: as §1, §2

[15] = test system: Klebsiella pneumoniae NEMC 87-271; assay: MIC by agar dilution; format: cell-based; conditions: NEMC87271, Mueller-Hinton agar, 5% sheep blood, 18 hours, read-out: MINIMAL INHIBITORY CONCENTRATION
Method: as §1, §2

[16] = test system: Escherichia coli ATCC 25922; assay: MIC by agar dilution; format: cell-based; conditions: ATCC25922, Mueller-Hinton agar, 5% sheep blood, 18 hours, read-out: MINIMAL INHIBITORY CONCENTRATION
Method: as §1, §2

[17] = test system: Staphylococcus aureus ATCC 25923; assay: MIC by agar dilution; format: cell-based; conditions: ATCC25923, Mueller-Hinton agar, 5% sheep blood, 18 hours, read-out: MINIMAL INHIBITORY CONCENTRATION
Method: as §1, §2

[18] = test system: Bacillus cereus DAVIES; assay: MIC by agar dilution; format: cell-based; conditions: Mueller-Hinton agar, 5% sheep blood, 18 hours, read-out: MINIMAL INHIBITORY CONCENTRATION
Method: as §1, §2

[19] = test system: Enterococcus spp. UCI 85-30; assay: MIC by agar dilution; format: cell-based; conditions: Mueller-Hinton agar, 5% sheep blood, 18 hours, read-out: MINIMAL INHIBITORY CONCENTRATION
Method: as §1, §2

[20] = test system: Staphylococcus epidermidis IVES 455; assay: MIC by agar dilution; format: cell-based; conditions: IVES455, Mueller-Hinton agar, 5% sheep blood, 18 hours, read-out: MINIMAL INHIBITORY CONCENTRATION
Method: as §1, §2

[21] = test system: Staphylococcus aureus IVES 160; assay: MIC by agar dilution; format: cell-based; conditions: IVES160, Mueller-Hinton agar, 5% sheep blood, 18 hours, read-out: MINIMAL INHIBITORY CONCENTRATION
Method: as §1, §2

[22] = In vivo toxicity in uninfected mice; conditions: for In Vivo Toxicity: Survival Ratio 7 Days After Administration Of Single Subcutaneous Dose: uninfected mice
Method: The in vivo antibacterial activity of antibiotic LL-E19020 Gamma is established by infecting female CD-1 mice from Charles River Laboratories, weighing 20±2 g each, intraperitoneally with either 2.0 X 10^2 CFU/0.5 ml Streptococcus pyogenes C203 suspended in broth or 2.8 X 10^6 CFU/0.5 ml Straphylococcus aureus Smith suspended in 5% hog gastric mucin. The mice were treated subcutaneously, 30 minutes after infection with the indicated dose of the test compound in 0.5 ml of 0.2% aqueous agar. Toxicity studies were performed administering the same treatment to uninfected mice.

[23] = test system: gram negative bacteria; assay: MIC by agar dilution, summary for gram-negative bacteria; format: cell-based; conditions: 18 h; text summary: no gram-negative activity
Method: as §1
as §2, with “Inoculated agar plates are allowed to stand undisturbed until the inoculum spots are completely absorbed. • 5. The plates are inverted and incubated at 35 °C. for 18 hours with CO2. • 6. The minimum inhibitory concentration (MIC) is taken as the lowest concentration of antimicrobial agent at which complete inhibition of antimicrobial agent at which complete inhibition occurs. A very fine, barely visible haze or a single colony is disregarded.” left out

[24] = test system: staphylococci and enterococci; assay: MIC by agar dilution, summary for staphylococci and enterococci; format: cell-based; conditions: 18 h; text summary: poor to moderate activity vs staphylococci and enterococci
Method: as §1
as §2, with “Inoculated agar plates are allowed to stand undisturbed until the inoculum spots are completely absorbed. • 5. The plates are inverted and incubated at 35 °C. for 18 hours with CO2. • 6. The minimum inhibitory concentration (MIC) is taken as the lowest concentration of antimicrobial agent at which complete inhibition of antimicrobial agent at which complete inhibition occurs. A very fine, barely visible haze or a single colony is disregarded.” left out

Which results are given for `C/C=C\C=C\C1OC(O)(C(COC2CC(OC)C(OC3CC(OC)C(OC4CC(OC)C(O)C(C)O4)C(C)O3)C(C)O2)C(=O)NC/C=C/C=C(\C)C(OC)C(C)C2CC(O)C(/C=C/C=C/C=C/C(=O)O)O2)C(OC(=O)Cc2ccc(O)cc2)C(O)C1(C)C` (centres unmarked) [LL-E19020 Gamma]?
MIC [1]: 64 µg/mL (≈ 51.5 µM); MIC [2]: 8 µg/mL (≈ 6.44 µM); MIC [3]: 16 µg/mL (≈ 12.9 µM); MIC [4]: 128 µg/mL (≈ 103 µM); MIC [5]: 0.12 µg/mL (≈ 0.0966 µM); MIC [6]: 64 µg/mL (≈ 51.5 µM); MIC [7]: 0.5 µg/mL (≈ 0.402 µM); MIC [8]: 16 µg/mL (≈ 12.9 µM); MIC [9]: 16 µg/mL (≈ 12.9 µM); MIC [10]: > 128 µg/mL; MIC [11]: 32 µg/mL (≈ 25.8 µM); MIC [12]: 16 µg/mL (≈ 12.9 µM); MIC [13]: 0.5 µg/mL (≈ 0.402 µM); MIC [14]: 16 µg/mL (≈ 12.9 µM); MIC [15]: > 128 µg/mL; MIC [16]: > 128 µg/mL; MIC [17]: > 128 µg/mL; MIC [18]: 32 µg/mL (≈ 25.8 µM); MIC [19]: 16 µg/mL (≈ 12.9 µM); MIC [20]: 16 µg/mL (≈ 12.9 µM); MIC [21]: 32 µg/mL (≈ 25.8 µM); toxic symptoms ([22]; dosed subcutaneously at the same levels used in the protection study (0.5-64 mg/kg)): did not exhibit toxic symptoms; In Vivo Toxicity: Survival Ratio 7 Days After Administration Of Single Subcutaneous Dose ([22]; 0.5 MG/KG): 2/2; In Vivo Toxicity: Survival Ratio 7 Days After Administration Of Single Subcutaneous Dose ([22]; 1 MG/KG): 2/2; In Vivo Toxicity: Survival Ratio 7 Days After Administration Of Single Subcutaneous Dose ([22]; 2 MG/KG): 2/2; In Vivo Toxicity: Survival Ratio 7 Days After Administration Of Single Subcutaneous Dose ([22]; 4 MG/KG): 2/2; In Vivo Toxicity: Survival Ratio 7 Days After Administration Of Single Subcutaneous Dose ([22]; 8 MG/KG): 2/2; In Vivo Toxicity: Survival Ratio 7 Days After Administration Of Single Subcutaneous Dose ([22]; 16 MG/KG): 2/2; In Vivo Toxicity: Survival Ratio 7 Days After Administration Of Single Subcutaneous Dose ([22]; 32 MG/KG): 2/2; In Vivo Toxicity: Survival Ratio 7 Days After Administration Of Single Subcutaneous Dose ([22]; 64 MG/KG): 2/2; MIC [23]: > 128 µg/mL; MIC [24]: 8 to 128 µg/mL (≈ 6.44 to 103 µM)
